Source: patent US20260217701A1, “SELECTIVE BET INHIBITORS AND USES THEREOF” (Tay Therapeutics Limited, priority 2022, published 2026)
“And” between values parts separate entries of the source, which are not always exact repeats. Equal entries are not always repeated.

Tested on: imiquimod-induced psoriasis
Assay: Imiquimod-induced psoriasis model
Type: in vivo, mice
Parameters: Spleen Weight / Spleen Weight Ratio: unit not given here
Details: for PASI Scores: IMI + Deucravacitinib 3 mg/kg; for Mean scores of the presence of erythema on the skin of animals at the area of induction of psoriasis / Mean scores of the presence of induration on the skin of animals at the area of induction of psoriasis / Mean scores of the presence of peeling on the skin of animals at the area of induction of psoriasis: mean ± SEM
Description: Imiquimod-induced psoriasis is a model of psoriasis in mice that induces psoriasis-like dermatitis. The pathology closes resembles human plaque-type psoriasis and is a valuable tool for testing new therapies against psoriasis. […] Compound A was formulated in a 5% DMSO/40% PEG-400/55% (0.9% NaCl w/v water) solution (Table 2F). Experimental groups for the study are outlined in Table 4. Prior to study initiation, the backs of all animals in the study were depilated to allow for induction of psoriasis and monitoring of disease progression.
Once assigned to experimental groups, on Day 1 and continuing through Day 14, topical imiquimod (IMI; Aldara™ containing 5% Imiquimod) was administered to the dorsal depilated animals, and animals in group 1 received topical administration of Excipial® hydrocream (65 mg). […] Clobetasol was applied topically for animals in group 11.
Body weights were recorded three times a week from Day 1 to Day 8, and daily from Day 8 until the study end at Day 15. At termination on D15 the spleen weight ratio was determined. Disease severity was assessed using the psoriasis area severity index (PASI) daily from Day 8 until study completion on Day 15. The PASI score was calculated based on three parameters (presence of erythema, induration of the skin, and peeling of the skin at the area of induction) on a scale of 0 to 4 (0=no more or absence, 1=low, 2=moderate, 3=high, 4=severe). The PASI score for each animal was calculated as the sum of the score of each parameter measured. The score of the use of enrichment (SUE) was also assessed daily from Day 8 to Day 15. At study completion on Day 15, animal behavior was evaluated using an open field to assess distance travelled, number scratching, and licking and rearing performed in 10 minutes. Upon study termination animals were sacrificed, the spleen was excised and weighed, and blood samples were collected. Serum was isolated from the blood sample for cytokine and other biomarker analysis. IL-1B, IL-6, IL-17, and TNF-α assayed using simple plex technique on an ELLA automated immunoassay system. IL-22 and IL-23 were assayed by ELISA.
The imiquimod-induced model of psoriasis was used to assess the efficacy of Compound A in treating psoriasis. […] Treatment started on Day 8 after induction so reference to day 1 of treatment is to Day 8 and day 7 of treatment is to Day 14.

[1] = IMI-psoriasis model, behavioral evaluation D15, 3 mg/kg, individual animals
[2] = IMI-psoriasis model, behavioral evaluation, 3 mg/kg, individual animals
[3] = IMI-psoriasis model, mice, 3 mg/kg, individual animals
[4] = IMI + 3 mg/kg, D8 (before start of treatment)

Deucravacitinib [reference compound]
symptoms by day 15 (representative images) (3 mg/kg): nearly entirely symptom free | PASI-90 (change in PASI score ≥90%) by day 7 of treatment (3 mg/kg IP once daily): surpassed PASI-90 | Body Weight D1 (IMI + 3 mg/kg, Day 1 (before treatment start on Day 8), individual animals, 3 mg/kg, in g (unit assumed)): 18.26 and 17.37 and 16.82 and 17.07 and 16.32 and 18.04 and 16.47 and 17.58 | Body Weight D3 (IMI + 3 mg/kg, Day 3 (before treatment start on Day 8), individual animals, 3 mg/kg, in g (unit assumed)): 16.20 and 16.31 and 14.76 and 15.24 and 15.52 and 15.99 and 14.97 and 15.55 | Body Weight D5 (IMI + 3 mg/kg, Day 5 (before treatment start on Day 8), individual animals, 3 mg/kg, in g (unit assumed)): 18.16 and 16.94 and 15.74 and 15.23 and 15.99 and 17.09 and 14.94 and 16.50 | Body Weight D7 (IMI + 3 mg/kg, Day 7 (before treatment start on Day 8), individual animals, 3 mg/kg, in g (unit assumed)): 17.33 and 17.08 and 15.79 and 15.48 and 16.18 and 17.55 and 15.22 and 16.65 | Body Weight D8 (IMI + 3 mg/kg, Day 8 (first day of treatment), individual animals, 3 mg/kg, in g (unit assumed)): 17.09 and 17.16 and 15.63 and 15.50 and 15.52 and 17.05 and 14.52 and 15.81 | Body Weight D9 (IMI + 3 mg/kg, Day 9, individual animals, 3 mg/kg, in g (unit assumed)): 16.60 and 16.54 and 15.63 and 15.57 and 16.01 and 16.79 and 14.75 and 13.93 | Body Weight D10 (IMI + 3 mg/kg, Day 10, individual animals, 3 mg/kg, in g (unit assumed)): 16.71 and 16.43 and 16.08 and 15.84 and 14.94 and 16.16 and 14.20 | Body Weight D11 (IMI + 3 mg/kg, Day 11, individual animals, 3 mg/kg, in g (unit assumed)): 17.38 and 15.87 and 15.51 and 15.55 and 16.43 and 14.72 | Body Weight D12 (IMI + 3 mg/kg, Day 12, individual animals, 3 mg/kg, in g (unit assumed)): 17.70 and 15.90 and 15.59 and 15.82 and 17.15 and 15.06 | Body Weight D13 (IMI + 3 mg/kg, Day 13, individual animals, 3 mg/kg, in g (unit assumed)): 17.75 and 16.24 and 15.77 and 15.95 and 16.97 and 14.52 | Body Weight D14 (IMI + 3 mg/kg, Day 14, individual animals, 3 mg/kg, in g (unit assumed)): 18.00 and 16.31 and 15.59 and 16.06 and 17.07 and 15.08 | Body Weight D15 (IMI + 3 mg/kg, Day 15, individual animals, 3 mg/kg, in g (unit assumed)): 18.03 and 16.39 and 16.00 and 16.29 and 17.17 and 15.22 | MBWC D1-D8 (IMI + 3 mg/kg, body weight change Day 1 to Day 8 (before treatment), individual animals, 3 mg/kg): −1.17 and −0.21 and −1.19 and −1.57 and −0.80 and −0.99 and −1.95 and −1.77 | MBWC D8-D15 (IMI + 3 mg/kg, body weight change Day 8 to Day 15 (treatment period), individual animals, 3 mg/kg): 0.94 and 0.76 and 0.50 and 0.77 and 0.12 and 0.70 | PASI Scores (D8 (day treatment started), individual animals): 6 (3×) and 7 and 10 and 8 (3×) | PASI Scores (D9, individual animals): 7 (3×) and 6 (4×) and 8 | PASI Scores (D10, individual animals): 6 (6×) and 7 | PASI Scores (D11, individual animals): 6 (3×) and 5 (2×) and 4 | PASI Scores (D12, individual animals): 4 (2×) and 3 (4×) | PASI Scores (D13, individual animals): 2 (3×) and 0 (2×) and 4 | PASI Scores (D14, individual animals): 1 (4×) and 0 and 2 | PASI Scores (D15, individual animals): 1 (2×) and 0 (4×) | Use Enrichment D1 (IMI-psoriasis model, D1, 3 mg/kg, per cage (two animals)): 4.0 | Use Enrichment D10 (IMI-psoriasis model, D10, 3 mg/kg, per cage (two animals)): 0.0 | Use Enrichment D14 (IMI-psoriasis model, D14, 3 mg/kg, per cage (two animals)): 3.0 and 3.5 and 2.0 | Use Enrichment D15 (IMI-psoriasis model, D15, 3 mg/kg, per cage (two animals)): 4.0 and 2.0 | Number Licking [1]: 1 and 2 (2×) and 7 and 8 | Number Licking + Scratching [1]: 2 (3×) and 10 and 20 | Number Scratching [1]: 1 and 0 (2×) and 3 and 12 | Distance Traveled [2]: 14 m (2×) and 9 m and 19 m and 12 m | Number Rearings [2]: 31 and 22 and 58 and 68 and 38 | Use Enrichment Mean D1-D8 (IMI-psoriasis model, mean D1-D8, 3 mg/kg, per cage (two animals)): 2.50 and 2.00 | Spleen Weight [3]: 195.00 and 187.27 and 171.30 and 177.57 and 171.11 and 127.21 | Spleen Weight Ratio [3]: 1081.53 and 1142.59 and 1070.63 and 1090.06 and 996.56 and 835.81 | Mean scores of the presence of erythema on the skin of animals at the area of induction of psoriasis [4]: 2.1 ± 0.1 | Mean scores of the presence of induration on the skin of animals at the area of induction of psoriasis [4]: 2.8 ± 0.3 | Mean scores of the presence of peeling on the skin of animals at the area of induction of psoriasis [4]: 2.5 ± 0.2 | Mean scores of the presence of erythema on the skin of animals at the area of induction of psoriasis (IMI + 3 mg/kg, D9): 2.1 ± 0.1 | Mean scores of the presence of induration on the skin of animals at the area of induction of psoriasis (IMI + 3 mg/kg, D9): 2.4 ± 0.2 | Mean scores of the presence of peeling on the skin of animals at the area of induction of psoriasis (IMI + 3 mg/kg, D9): 2.1 ± 0.1 | Mean scores of the presence of erythema on the skin of animals at the area of induction of psoriasis (IMI + 3 mg/kg, D10): 2.3 ± 0.2 | Mean scores of the presence of induration on the skin of animals at the area of induction of psoriasis (IMI + 3 mg/kg, D10): 2.0 ± 0.2 | Mean scores of the presence of peeling on the skin of animals at the area of induction of psoriasis (IMI + 3 mg/kg, D10): 1.9 ± 0.1 | Mean scores of the presence of erythema on the skin of animals at the area of induction of psoriasis (IMI + 3 mg/kg, D11): 1.8 ± 0.4 | Mean scores of the presence of induration on the skin of animals at the area of induction of psoriasis (IMI + 3 mg/kg, D11): 1.5 ± 0.2 | Mean scores of the presence of peeling on the skin of animals at the area of induction of psoriasis (IMI + 3 mg/kg, D11): 2.0 ± 0.3 | Mean scores of the presence of erythema on the skin of animals at the area of induction of psoriasis (IMI + 3 mg/kg, D12): 1.8 ± 0.2 | Mean scores of the presence of induration on the skin of animals at the area of induction of psoriasis (IMI + 3 mg/kg, D12): 0.5 ± 0.2 | Mean scores of the presence of peeling on the skin of animals at the area of induction of psoriasis (IMI + 3 mg/kg, D12): 1.0 ± 0.0 | Mean scores of the presence of erythema on the skin of animals at the area of induction of psoriasis (IMI + 3 mg/kg, D13): 0.8 ± 0.3 | Mean scores of the presence of induration on the skin of animals at the area of induction of psoriasis (IMI + 3 mg/kg, D13): 0.0 ± 0.0 | Mean scores of the presence of peeling on the skin of animals at the area of induction of psoriasis (IMI + 3 mg/kg, D13): 0.8 ± 0.3 | Mean scores of the presence of erythema on the skin of animals at the area of induction of psoriasis (IMI + 3 mg/kg, D14): 0.2 ± 0.2 | Mean scores of the presence of induration on the skin of animals at the area of induction of psoriasis (IMI + 3 mg/kg, D14): 0.0 ± 0.0 | Mean scores of the presence of peeling on the skin of animals at the area of induction of psoriasis (IMI + 3 mg/kg, D14): 0.8 ± 0.2 | Mean scores of the presence of erythema on the skin of animals at the area of induction of psoriasis (IMI + 3 mg/kg, D15): 0.0 ± 0.0 | Mean scores of the presence of induration on the skin of animals at the area of induction of psoriasis (IMI + 3 mg/kg, D15): 0.0 ± 0.0 | Mean scores of the presence of peeling on the skin of animals at the area of induction of psoriasis (IMI + 3 mg/kg, D15): 0.3 ± 0.2 | Mean PASI Scores in IMI-Psoriasis Model (mice, IMI + 3 mg/kg, D8 (before start of treatment)): 7.4 ± 0.5 | Mean PASI Scores in IMI-Psoriasis Model (mice, IMI + 3 mg/kg, D9): 6.6 ± 0.3 | Mean PASI Scores in IMI-Psoriasis Model (mice, IMI + 3 mg/kg, D10): 6.1 ± 0.1 | Mean PASI Scores in IMI-Psoriasis Model (mice, IMI + 3 mg/kg, D11): 5.3 ± 0.3 | Mean PASI Scores in IMI-Psoriasis Model (mice, IMI + 3 mg/kg, D12): 3.3 ± 0.2 | Mean PASI Scores in IMI-Psoriasis Model (mice, IMI + 3 mg/kg, D13): 1.7 ± 0.6 | Mean PASI Scores in IMI-Psoriasis Model (mice, IMI + 3 mg/kg, D14): 1.0 ± 0.3 | Mean PASI Scores in IMI-Psoriasis Model (mice, IMI + 3 mg/kg, D15): 0.3 ± 0.2 | use of enrichment (nesting) (relative to vehicle-treated psoriasis animals): about half that seen with Compound A
